Results: patent US8729102B2, “Bicyclic compound” (Takeda Pharmaceutical Company Limited, priority 2010, dated 2014)

How the values were obtained:
[1] = target: T1, Human ACC2 (ACC2 (Nd), N terminal deleted) (Homo sapiens, UniProt O00763); experiment: Measurement of ACC2 inhibitory activity (malachite green, recombinant ACC2 (Nd)); assay type: biochemical; settings: 10 μM test compound, 20 min preincubation at 30° C., 20 min reaction; for inhibition at 10 µM: read-out: ACC2 inhibitory rate at 10 μM (%)
T1 construct: made in house; host or cells: SF-9 insect cells (baculovirus)
Protocol: The ACC2 inhibitory action of the compound of the present invention was evaluated by the following method.
(1) Cloning of Human ACC2 Gene and Preparation of Recombinant Baculovirus
Human ACC2 gene was cloned by PCR using a human skeletal muscle cDNA library (Clontech) as a template and Primer 1 and Primer 2 shown below. Primer 1 and Primer 2 were prepared by adding SalI, XbaI restriction enzyme recognition sequences based on the information of the base sequence of human ACC2 gene (Genbank Accession U89344).
(§1) PCR was performed using Pyrobest DNA polymerase (TAKARA BIO INC.). The obtained PCR product was cloned to pT7 Blue vector (Novagen) and after confirmation of the base sequence, digested with restriction enzymes SalI and XbaI. The obtained DNA fragment was inserted into pFAST-BacHTa (Invitrogen) digested with restriction enzymes Sail and XbaI to give expression plasmid ACC2/pFAST-BacHTa.
A plasmid for expression of ACC2 without a mitochondrial targeting sequence was prepared by PCR using the expression plasmid as a template, and Primer 3 (salI restriction enzyme recognition sequence was added) and Primer 4, which are prepared by reference to the information of human ACC2 gene base sequence (Genbank Accession U89344).
as §1, with “Pyrobest-DNA” for “Pyrobest DNA”, “Aflil.” for “XbaI.”, “ACC2/pFAST-BacHTa” for “pFAST-BacHTa (Invitrogen)”, “SalI” for “Sail”, “AfilI” for “XbaI”, “ACC2mito7/pFAST-BacHTa.” for “ACC2/pFAST-BacHTa.”
Using the expression plasmid ACC2mito7/pFAST-BacHTa and BAC-TO-BAC Baculovirus Expression System (Invitrogen), virus stock BAC-ACC2 of recombinant Baculovirus (N terminal deleted (hereinafter Nd)) was prepared.
(2) Preparation of ACC2 (Nd) Protein
SF-9 cells (Invitrogen) were inoculated to a medium (2 L) for insect cells (Sf-900IISFM medium (Invitrogen) containing 10% fetal bovine serum (Trace), 50 mg/L Gentamicin (Invitrogen), 0.1% Pluronic F-68 (Invitrogen)) at 0.5×10^6 cells/mL, and cultured with shaking in Wave Bioreactor (Wave) at 27° C., 20 rpm, rocking angle 6°, oxygen concentration 30%.
On day 4 of the culture, 3 L of the medium for insect cells was added, the rocking angle was set to 8°, and the cells were further cultured. On day 5 of the culture, 100 mL of recombinant Baculovirus BAC-ACC2 (Nd) was added, 5 L of the medium for insect cells was further added, the rocking angle was set to 11°, and the cells were cultured for 3 days. The culture medium was centrifuged at 1000×g for 10 min to give virus-infected cells. The cells were washed with phosphate buffered saline (Invitrogen) and centrifuged under the same conditions. The obtained cells were cryopreserved at −80° C.
The cryopreserved cells were thawed in ice and suspended in 900 mL of 25 mM HEPES buffer (pH 7.5) containing 10% Glycerol, 0.13 M NaCl, 1 mM EDTA, 25 mM Sodium β-Glycerophosphate and 1 mM Sodium Orthovanadate, and supplemented with Complete Protease Inhibitor (Nippon Boehringer Ingelheim Co., Ltd.). The obtained suspension was homogenized three times in a polytron homogenizer (Kinematica) at 20,000 rpm for 30 sec. The obtained cell disruption solution was clarified by centrifugation at 31000×g for 60 min, and filtered through a 0.45 μm filter. The filtrate was passed through a column packed with 60 mL of Ni-NTA Super Flow Gel (QUIAGEN) at a flow rate of about 5 mL/min. The column was washed with buffer A (50 mM HEPES (pH 7.5) containing 0.3 M NaCl), further washed with buffer A containing 20 mM Imidazole, and eluted with buffer A containing 100 mM Imidazole. The eluate was concentrated with Vivaspin 20 (Vivascience) with a molecular weight cut off of 30K. The obtained concentrate was dialyzed against 50 mM HEPES (pH 7.5) containing 10 mM MgCl2, 2 mM Dithiothreitol, 10 mM Tripotassium Citrate and 0.3 M NaCl. […]

[2] = system: Malonyl-CoA content of femoral muscle; experiment: Malonyl CoA content measurement in femoral muscle after gavage (LC/MS/MS); assay type: in vivo; settings: male F344/Jcl rats, 10 mg/kg by gavage, femoral muscle 2 hours after dosing; Mean ± S.D.; vehicle 1.955 ± 0.496
Protocol: Male F344/Jcl rats (CLEA Japan, Inc., Tokyo) purchased at 5 weeks of age were acclimated to the rearing environment, and used for an experiment of malonyl CoA content measurement at 10 weeks of age. In the experiment of malonyl CoA content measurement, the body weight was measured in the morning (8:00-11:00) 3 days before administration of a test compound, and the rats were divided into groups free of dispersion in the body weight between administration groups. The test compound was prepared as a 0.5% methyl cellulose (Wako) suspension to a dose of 5 mL/kg, in the afternoon (12:00-17:00) of one day before administration by gavage, and administered by gavage according to the body weight on the day of test compound administration. The vehicle group was administered with a solvent (0.5% methyl cellulose) alone by gavage. […]
A sample homogenate for the malonyl CoA measurement was prepared by disrupting a frozen tissue with a measured weight in a Multi-beads shocker (MB400U, Yasui Kikai Corporation), adding an extract (6% perchloric acid:aqueous di-n-butylammonium acetate solution (IPC-DBAA, 0.5 mol/L, TOKYO CHEMICAL INDUSTRY CO., LTD.)=1000:1, 500 μL) containing an internal standard substance ([^13C3]-malonyl CoA lithium salt (100 pmol/mL, Sigma-Aldrich)), and applying the mixture to the Multi-beads shocker again. […]

T1 sequence (O00763 117-2458 limits assumed, stated change not applied): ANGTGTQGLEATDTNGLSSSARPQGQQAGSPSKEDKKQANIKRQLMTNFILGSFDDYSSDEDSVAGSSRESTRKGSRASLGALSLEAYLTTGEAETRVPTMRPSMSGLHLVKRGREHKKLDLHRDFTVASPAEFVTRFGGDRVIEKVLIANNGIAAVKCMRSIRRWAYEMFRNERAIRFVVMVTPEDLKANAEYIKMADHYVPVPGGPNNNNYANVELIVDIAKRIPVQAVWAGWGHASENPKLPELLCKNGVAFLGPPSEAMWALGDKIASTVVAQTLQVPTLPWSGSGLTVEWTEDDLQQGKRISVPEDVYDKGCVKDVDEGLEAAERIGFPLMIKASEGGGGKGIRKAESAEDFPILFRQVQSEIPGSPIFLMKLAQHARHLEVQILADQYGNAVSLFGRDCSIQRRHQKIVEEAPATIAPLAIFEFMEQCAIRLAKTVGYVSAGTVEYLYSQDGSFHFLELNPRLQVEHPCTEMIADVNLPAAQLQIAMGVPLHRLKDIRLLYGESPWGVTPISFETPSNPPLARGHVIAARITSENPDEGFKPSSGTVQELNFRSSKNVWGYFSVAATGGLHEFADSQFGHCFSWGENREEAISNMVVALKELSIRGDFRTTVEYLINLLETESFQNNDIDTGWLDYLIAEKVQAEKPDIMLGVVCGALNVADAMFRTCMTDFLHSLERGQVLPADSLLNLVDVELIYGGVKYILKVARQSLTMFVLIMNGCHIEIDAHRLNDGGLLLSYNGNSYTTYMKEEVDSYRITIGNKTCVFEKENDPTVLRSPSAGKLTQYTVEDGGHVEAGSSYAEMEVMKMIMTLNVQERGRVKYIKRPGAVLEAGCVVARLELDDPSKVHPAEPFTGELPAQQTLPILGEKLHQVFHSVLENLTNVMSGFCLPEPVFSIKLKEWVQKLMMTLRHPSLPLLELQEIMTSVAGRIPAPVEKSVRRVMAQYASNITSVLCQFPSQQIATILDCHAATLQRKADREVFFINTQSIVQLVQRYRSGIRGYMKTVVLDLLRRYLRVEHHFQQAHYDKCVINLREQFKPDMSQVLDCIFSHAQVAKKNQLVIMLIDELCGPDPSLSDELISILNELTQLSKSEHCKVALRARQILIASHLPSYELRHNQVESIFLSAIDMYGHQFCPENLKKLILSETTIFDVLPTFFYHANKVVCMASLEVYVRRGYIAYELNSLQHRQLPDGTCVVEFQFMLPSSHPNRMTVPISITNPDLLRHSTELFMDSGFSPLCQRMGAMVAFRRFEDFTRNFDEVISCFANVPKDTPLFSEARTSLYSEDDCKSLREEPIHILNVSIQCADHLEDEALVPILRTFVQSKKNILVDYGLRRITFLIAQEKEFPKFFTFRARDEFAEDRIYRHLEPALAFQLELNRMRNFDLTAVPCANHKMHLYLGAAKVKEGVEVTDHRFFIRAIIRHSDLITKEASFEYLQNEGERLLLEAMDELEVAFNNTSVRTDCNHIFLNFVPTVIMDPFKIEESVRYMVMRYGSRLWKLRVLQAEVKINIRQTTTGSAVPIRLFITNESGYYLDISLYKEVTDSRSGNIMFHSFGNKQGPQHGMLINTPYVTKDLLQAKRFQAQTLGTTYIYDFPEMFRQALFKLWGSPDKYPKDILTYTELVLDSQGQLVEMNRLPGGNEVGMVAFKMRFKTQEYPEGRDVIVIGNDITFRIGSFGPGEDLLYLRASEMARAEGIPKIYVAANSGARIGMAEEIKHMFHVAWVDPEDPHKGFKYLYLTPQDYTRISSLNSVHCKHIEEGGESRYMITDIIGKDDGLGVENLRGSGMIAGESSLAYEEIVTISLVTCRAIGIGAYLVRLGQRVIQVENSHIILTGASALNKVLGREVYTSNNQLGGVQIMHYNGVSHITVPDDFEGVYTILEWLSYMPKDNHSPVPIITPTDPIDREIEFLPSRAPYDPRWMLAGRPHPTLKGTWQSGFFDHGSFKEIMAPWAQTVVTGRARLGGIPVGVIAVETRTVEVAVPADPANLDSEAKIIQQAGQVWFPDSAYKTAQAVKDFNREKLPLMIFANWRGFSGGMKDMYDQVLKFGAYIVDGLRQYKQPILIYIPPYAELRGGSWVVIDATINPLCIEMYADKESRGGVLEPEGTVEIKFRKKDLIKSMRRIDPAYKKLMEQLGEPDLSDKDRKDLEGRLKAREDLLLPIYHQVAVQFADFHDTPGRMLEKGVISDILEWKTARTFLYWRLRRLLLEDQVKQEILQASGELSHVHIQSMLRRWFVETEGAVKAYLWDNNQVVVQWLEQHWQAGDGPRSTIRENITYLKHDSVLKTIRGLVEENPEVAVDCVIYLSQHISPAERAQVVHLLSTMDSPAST

Row | Compound | melting point | inhibition at 10 µM [1] | ACC2 inhibitory rate at 10 μM (%) ([1]; 10 µM) | malonyl-CoA (nmol/g-tissue), Malonyl-CoA content of femoral muscle at 2 hours after dosing [2]
1 | CC(=O)N[C@@H](C)COc1ccc(-c2nc3ccc(OCC4CC4)cc3o2)nc1 [Example 1, N-[(1S)-2-({6-[6-(cyclopropylmethoxy)-1,3-benzoxazol-2-yl]pyridin-3-yl}oxy)-1-methylethyl]acetamide] | 179 to 180 °C | 101% | – | –
2 | CCOc1ccc2nc(-c3ccc(OC[C@H](C)NC(C)=O)cn3)oc2c1 [Example 28, N-[(1S)-2-{[6-(6-ethoxy-1,3-benzoxazol-2-yl)pyridin-3-yl]oxy}-1-methylethyl]acetamide] | – | 83% | – | 0.663 ± 0.119 nmol/g-tissue
3 | C[C@@H](COc1cnc(-c2nc3ccc(OCC4CC4(F)F)cc3o2)c(F)c1)NC(N)=O (stereo partly drawn) [Example 112, Diastereomer of 1-{(1S)-2-[(6-{6-[(2,2-difluorocyclopropyl)methoxy]-1,3-benzoxazol-2-yl}-5-fluoropyridin-3-yl)oxy]-1-methylethyl}urea (retention time: long)] | – | – | 100% | –
4 | CCC1(c2ccc(OC[C@H](C)NC(C)=O)cn2)Cc2ccc(OCC3CC3)cc2O1 (stereo partly drawn) [Example 119, Diastereomer of N-[(1S)-2-({6-[6-(cyclopropylmethoxy)-2-ethyl-2,3-dihydro-1-benzofuran-2-yl]pyridin-3-yl}oxy)-1-methylethyl]acetamide] | – | 97% | – | –

Further lines, with some results ahead:

Row | melting point | inhibition at 10 µM [1] | ACC2 inhibitory rate at 10 μM (%) ([1]; 10 µM) | Compound | malonyl-CoA (nmol/g-tissue), Malonyl-CoA content of femoral muscle at 2 hours after dosing [2]
5 | 156 to 157 °C | 92% | – | CC(=O)N[C@@H](C)COc1cc(-c2nc3cc(OCC4CC4)ccc3o2)on1 [Example 2, N-[(1S)-2-({5-[5-(cyclopropylmethoxy)-1,3-benzoxazol-2-yl]isoxazol-3-yl}oxy)-1-methylethyl]acetamide] | –
6 | 158 to 159 °C | 95% | – | CC(=O)N[C@@H](C)COc1cnc(-c2nc3ccc(OCC4CC4)cc3o2)c(F)c1 [Example 6, N-[(1S)-2-({6-[6-(cyclopropylmethoxy)-1,3-benzoxazol-2-yl]-5-fluoropyridin-3-yl}oxy)-1-methylethyl]acetamide] | 0.513 ± 0.048 nmol/g-tissue
